Test results from patent US20110201608A1 (BOEHRINGER INGELHEIM INTERNATIONAL GMBH, priority 2008, published 2011).

The compounds below were run against T1, Recombinant human Syk (GST-Syk kinase fusion protein) (Homo sapiens, UniProt P43405) (assay: Syk Kinase Test (Kinase Glo Luminescence Kinase test)). Details: 1 μM test substance; negative control (no kinase) = 100% inhibition, positive control (no test substance) = 0% inhibition.
T1 construct: made in house
Type: biochemical
Experimental: The catalytic activity of the GST-Syk kinase fusion protein was determined using the Kinase Glo® Luminescence Kinase test of Messrs Promega. In this homogeneous test the amount of ATP remaining after the kinase reaction has been carried out is quantified by a luciferin-luciferase reaction using luminescence. The luminescence signal obtained correlates with the amount of ATP still present and thus correlates inversely with the activity of the protein kinase.
The test substances were dissolved in 100% DMSO at a concentration of 10 mM and diluted in DMSO to a concentration of 1 mM. […] GST-Syk was diluted to 6.0 nM in the test buffer and 10 μl of this dilution were used in the kinase test (final concentration of Syk=4 nM in a total volume of 15 μl).
Positive controls are the reaction mixtures that contain no test substance; negative controls are reaction mixtures that contain no kinase.
After 60 minutes, 10 μl Kinase-Glo® solution (Promega, Cat. # V6712) (heated to ambient temperature) are added to each well and incubation is continued for a further 15 minutes at ambient temperature.
The output file of the “MicroBeta TRILUX” is a text file that contains the well number and measurements obtained. […] Then from this the % inherent value for the measurement of each substance concentration was calculated using an “MS-Excel-VB macro”. […] The IC50 values were calculated from the % inhibition values using “GraphPadPrism” software (Version 5) (GraphPad Software Inc.).

Q: With `c1cnc2cc(-c3ccc(N4CCOCC4)cc3)nc(Nc3ccc4cn[nH]c4c3)c2c1` [Example 1, 5-[(1H-indazol-6-yl)amino]-7-(4-morpholinophenyl)-[1,6]naphthyridine] as the compound, how does the “% INHB SYK at 1 μM” value read?
A: The value was 82.0%.

Q: With `NC(=O)c1cccnc1Nc1nc(-c2ccc(N3CCOCC3)cc2)cc2ncccc12` [Example 2, 2-[7-(4-morpholin-4-yl-phenyl)-[1,6]naphthyridin-5-ylamino]-nicotinamide] as the compound, how does the “% INHB SYK at 1 μM” value read?
A: Its value is 72.6%.

Q: For `CNc1nc(-c2ccc(N3CCOCC3)cc2)cc2ncccc12` [Example 3], which “% INHB SYK at 1 μM” value is on record?
A: Its value is 101.8%.

Q: How did the “% INHB SYK at 1 μM” value turn out when `OCCCCOc1nc(-c2ccc(N3CCOCC3)cc2)cc2ncccc12` [Example 4, 4-[7-(4-morpholinophenyl)-[1,6]naphthyridin-5-yloxy]-butan-1-ol] was run?
A: The value was 94.4%.

Q: With `CN[C@H]1CC[C@@H](Nc2nc(-c3ccc(N4CCOCC4)cc3)cc3ncccc23)CC1` [Example 9, N-methyl-N′-[7-(4-morpholin-4-yl-phenyl)-[1,6]naphthyridin-5-yl]-cyclohexane-1,4-diamine] as the compound, how does the “% INHB SYK at 1 μM” value read?
A: The value was 86.7%.

Q: Which “% INHB SYK at 1 μM” value does the source give for `COc1cc(-c2cc3ncccc3c(NC[C@@H]3CCNC3)n2)ccc1N1CCOCC1` [Example 10] here?
A: Its value is 98.6%.

Q: For `O[C@H]1CC[C@@H](Nc2nc(-c3ccc(N4CCOCC4)cc3)cc3ncccc23)CC1` [Example 62, 4-[7-(4-morpholin-4-yl-phenyl)-[1,6]naphthyridin-5-ylamino]-cyclohexanol], which “% INHB SYK at 1 μM” value is on record?
A: The value was 76.8%.

Q: How did the “% INHB SYK at 1 μM” value turn out when `c1cnc2cc(-c3ccc(N4CCOCC4)cc3)nc(NCC3CNCCO3)c2c1` (stereo not shown) [Example 63] was run?
A: The value was 85.4%.

Q: For `Cc1cc(-c2cc3ncccc3c(OC[C@H]3CCCNC3)n2)ccc1N1CCOCC1` [Example 66, (S)-4-(2-methyl-4-(5-(piperidine-3-ylmethoxy)-[1,6]naphthyridin-7-yl)phenyl)morpholine], which “% INHB SYK at 1 μM” value is on record?
A: Its value is 102.8%.

Q: With `CCOc1nc(-c2ccc(N3CCOCC3)cc2)cc2ncccc12` [Example 79, 5-Ethoxy-7-(4-morpholin-4-yl-phenyl)-[1,6]naphthyridine] as the compound, how does the “% INHB SYK at 1 μM” value read?
A: The value was 82.9%.

Q: Which “% INHB SYK at 1 μM” value does the source give for `OCC#Cc1nc(-c2ccc(N3CCOCC3)cc2)cc2ncccc12` [Example 82, 3-[7-(4-morpholin-4-yl-phenyl)-[1,6]naphthyridin-5-yl]-prop-2-yn-1-ol] here?
A: Its value is 87.1%.

Q: For `CCNC(=O)NC1CN(c2nc(-c3ccc(N4CCN(C)CC4)cc3)cc3ncccc23)C1` [Example 92, 1-ethyl-3-(1-{7-[4-(4-methyl-piperazin-1-yl)-phenyl]-[1,6]naphthyridin-5-yl}-azetidin-3-yl)-urea], which “% INHB SYK at 1 μM” value is on record?
A: The value was 77.3%.

Q: Which “% INHB SYK at 1 μM” value does the source give for `CCNC(=O)N1CCCC1CNc1nc(-c2ccc(N3CCN(C)CC3)cc2)cc2ncccc12` (stereo not shown) [Example 93, 2-({7-[4-(4-methyl-piperazin-1-yl)-phenyl]-[1,6]naphthyridin-5-ylamino}-methyl)-pyrrolidin-1-carboxylic acid ethylamide] here?
A: The value was 91.5%.

Q: How did the “% INHB SYK at 1 μM” value turn out when `NC(=O)N1CCN(c2nc(-c3ccc(N4CCOCC4)cc3)cc3ncccc23)CC1` [Example 98, 4-[7-(4-morpholin-4-yl-phenyl)-[1,6]naphthyridin-5-yl]-piperazine-1-carboxylic acid amide] was run?
A: The value was 86.8%.

Q: For `NC(=O)C1CCN(c2nc(-c3ccc(N4CCOCC4)cc3)cc3ncccc23)C1` (stereo not shown) [Example 107, 1-[7-(4-morpholin-4-yl-phenyl)-[1,6]naphthyridin-5-yl]-pyrrolidine-3-carboxylic acid amide], which “% INHB SYK at 1 μM” value is on record?
A: The value was 95.3%.

Q: `CC(=O)N[C@H]1CC[C@@H](Nc2nc(-c3ccc(N4CCOCC4)cc3)cc3ncccc23)CC1` [Example 113, N-{4-[7-(4-morpholin-4-yl-phenyl)-[1,6]naphthyridin-5-ylamino]-cyclohexyl}-acetamide] was tested. Which “% INHB SYK at 1 μM” value did it give?
A: The value was 94.7%.

Q: Which “% INHB SYK at 1 μM” value does the source give for `c1ccc(-c2nc(-c3ccc(N4CCOCC4)cc3)cc3ncccc23)cc1` [Example 132, (4-(5-phenyl-1,6-naphthyridin-7-yl)phenyl)morpholine] here?
A: The value was 55.2%.

Q: How did the “% INHB SYK at 1 μM” value turn out when `CCc1nc(-c2ccc(N3CCOCC3)cc2)cc2ncccc12` [Example 140, (4-(5-ethyl-[1,6]naphthyridin-7-yl)phenyl)morpholine] was run?
A: Its value is 43.3%.

Q: How did the “% INHB SYK at 1 μM” value turn out when `C#Cc1nc(-c2ccc(N3CCOCC3)cc2)cc2ncccc12` [Example 142, (4-(5-ethynyl-[1,6]naphthyridin-7-yl)phenyl)morpholine] was run?
A: Its value is 70.3%.
